For data set [1], the system named is proteasome.
The subject of data set [2] is T2 20S proteasomes (standard proteasome). The experiment in a line: 20S proteasomes purified from T2 cells in Hepes buffer. The settings on record: human, 37°C, up to 48 hours.
The test system of data set [3] is T2.27 20S proteasomes (immunoproteasomes). The data set is described as follows: 20S proteasomes purified from T2.27 cells in Hepes buffer. The settings on record: human T2 cells transfected with murine LMP2 and LMP7, 37°C, up to 48 hours.
Data set [4] has as its system 20S proteasomes of T2 cells (standard proteasome). The experiment in a line: T2 20S proteasomes (standard proteasome) in Hepes buffer. The settings on record: human, 37°C, up to 48 hours.
In data set [5] the test system is 20S proteasomes of T2.27 cells (immunoproteasomes). The experiment in a line: T2.27 20S proteasomes (immunoproteasomes) in Hepes buffer. The settings on record: human T2 cells transfected with murine LMP2 and LMP7 subunits, 37°C, up to 48 hours.
The subject of data set [6] is LcL 20S proteasomes. The data set is described as follows: 3 µg LcL 20S proteasomes in 100 µl buffer; gp10040-52 and its heavy analogue digested together. The settings on record: human, up to 36 hours.
Data set [7] has as its system 20S proteasomes of Lymphoblastoid cell Lines (LcL). The data set is described as follows: LcL 20S proteasomes in Hepes buffer (Hepes 20 mM, KCI 1 mM, MgCl 0.5 mM, DTT 1 mM, NaN3 1 mM, pH 7.3). The settings on record: human, 37°C, up to 48 hours.

Drawing on patent EP2362225 (dated 2011), this text covers fragment found for three substances.

“Also recorded” adds a separate entry of the source.

Turning to RTKAWNRQLYPEW, the fragment found result in data set [1] is “gp10040-42/47-52 [RTK][QLYPEW]”; in data set [2], “gp10047-52/40-42 [QLYPEW][RTK]”; in data set [3], “gp10040-42/47-52 [RTK][QLYPEW]; also recorded: gp10047-52/40-42 [QLYPEW][RTK]”; in data set [4], “[RTK][QLYPEW]; also recorded: [QLYPEW][RTK]”; in data set [5], “[RTK][QLYPEW]; also recorded: [QLYPEW][RTK]”; in data set [6] it was “gp10040-042/47-52-α; also recorded: gp10047-52/40-42-α”. Also, the fragment found result in data set [7] was “gp10040-42/47-52 [RTK][QLYPEW]; also recorded: gp10047-52/40-42 [QLYPEW][RTK]”.

Regarding RTK^+6AWNRQL^+1YPEW, in data set [6], the fragment found entry is “gp10040-42/47-52-δ; also recorded: gp10047-52/40-42-δ”.

Turning to VSRQLRTKAWNRQLYPEWTEAQR, the fragment found result in data set [4] and in data set [5] was “[VSRQL][VSRQL] (gp10035-39/35-39); also recorded: [QLYPEWTEA][VSRQL] (gp10047-55/35-39)” each time.
